Data published in the NIST ThermoML archive (doi:10.1021/je9002724).
Numbers after ± are expanded uncertainties.

experiment: activity coefficient (dimensionless); of the first substance listed, at infinite dilution; xn = mol fraction of the nth substance listed; conditions: 303.15 K; Liquid; Chromatography; x1 = 0

SMILES	activity coefficient
Cc1ccccc1C [1,2-dimethylbenzene] + C[n+]1ccn(CCO)c1.F[B-](F)(F)F	28.9 ± 3
CCCCCCCC [octane] + C[n+]1ccn(CCO)c1.F[B-](F)(F)F	498 ± 52
Cc1ccc(C)cc1 [1,4-dimethylbenzene] + C[n+]1ccn(CCO)c1.F[B-](F)(F)F	35.4 ± 3.7
CC1CCCCC1 [methylcyclohexane] + C[n+]1ccn(CCO)c1.F[B-](F)(F)F	328 ± 35
CC(C)CC(C)(C)C [2,2,4-trimethylpentane] + C[n+]1ccn(CCO)c1.F[B-](F)(F)F	412 ± 44
CCCCCCCCC [nonane] + C[n+]1ccn(CCO)c1.F[B-](F)(F)F	546 ± 58
Cc1cccc(C)c1 [1,3-dimethylbenzene] + C[n+]1ccn(CCO)c1.F[B-](F)(F)F	37.2 ± 3.9
Cc1ccccc1 [toluene] + C[n+]1ccn(CCO)c1.F[B-](F)(F)F	18.3 ± 1.9

Results, then the compound that gave them:

activity coefficient	SMILES
15.3 ± 1.6	C=Cc1ccccc1 [styrene] + C[n+]1ccn(CCO)c1.F[B-](F)(F)F
123 ± 13	C1=CCCCC1 [cyclohexene] + C[n+]1ccn(CCO)c1.F[B-](F)(F)F
9.13 ± 0.96	c1ccccc1 [benzene] + C[n+]1ccn(CCO)c1.F[B-](F)(F)F
42.1 ± 4.4	CCc1ccccc1 [ethylbenzene] + C[n+]1ccn(CCO)c1.F[B-](F)(F)F
339 ± 36	C1CCCCC1 [cyclohexane] + C[n+]1ccn(CCO)c1.F[B-](F)(F)F
620 ± 65	CCCCCCC [heptane] + C[n+]1ccn(CCO)c1.F[B-](F)(F)F

same assay, conditions: 313.15 K; Liquid; Chromatography; x1 = 0

SMILES	activity coefficient
Cc1ccccc1C [1,2-dimethylbenzene] + C[n+]1ccn(CCO)c1.F[B-](F)(F)F	28.2 ± 3
CCCCCCCC [octane] + C[n+]1ccn(CCO)c1.F[B-](F)(F)F	532 ± 56
Cc1ccc(C)cc1 [1,4-dimethylbenzene] + C[n+]1ccn(CCO)c1.F[B-](F)(F)F	34.7 ± 3.6
CC1CCCCC1 [methylcyclohexane] + C[n+]1ccn(CCO)c1.F[B-](F)(F)F	373 ± 39
CC(C)CC(C)(C)C [2,2,4-trimethylpentane] + C[n+]1ccn(CCO)c1.F[B-](F)(F)F	523 ± 55
CCCCCCCCC [nonane] + C[n+]1ccn(CCO)c1.F[B-](F)(F)F	564 ± 60
Cc1cccc(C)c1 [1,3-dimethylbenzene] + C[n+]1ccn(CCO)c1.F[B-](F)(F)F	36.3 ± 3.8
Cc1ccccc1 [toluene] + C[n+]1ccn(CCO)c1.F[B-](F)(F)F	18 ± 1.9

Next, values leading:

activity coefficient	SMILES
15.1 ± 1.6	C=Cc1ccccc1 [styrene] + C[n+]1ccn(CCO)c1.F[B-](F)(F)F
118 ± 12	C1=CCCCC1 [cyclohexene] + C[n+]1ccn(CCO)c1.F[B-](F)(F)F
9.11 ± 0.96	c1ccccc1 [benzene] + C[n+]1ccn(CCO)c1.F[B-](F)(F)F
40.6 ± 4.3	CCc1ccccc1 [ethylbenzene] + C[n+]1ccn(CCO)c1.F[B-](F)(F)F
418 ± 44	C1CCCCC1 [cyclohexane] + C[n+]1ccn(CCO)c1.F[B-](F)(F)F
850 ± 90	CCCCCCC [heptane] + C[n+]1ccn(CCO)c1.F[B-](F)(F)F

same assay, conditions: 323.15 K; Liquid; Chromatography; x1 = 0

SMILES	activity coefficient
Cc1ccccc1C [1,2-dimethylbenzene] + C[n+]1ccn(CCO)c1.F[B-](F)(F)F	27.7 ± 2.9
CCCCCCCC [octane] + C[n+]1ccn(CCO)c1.F[B-](F)(F)F	574 ± 61
Cc1ccc(C)cc1 [1,4-dimethylbenzene] + C[n+]1ccn(CCO)c1.F[B-](F)(F)F	33.9 ± 3.6
CC1CCCCC1 [methylcyclohexane] + C[n+]1ccn(CCO)c1.F[B-](F)(F)F	421 ± 44
CC(C)CC(C)(C)C [2,2,4-trimethylpentane] + C[n+]1ccn(CCO)c1.F[B-](F)(F)F	731 ± 77
CCCCCCCCC [nonane] + C[n+]1ccn(CCO)c1.F[B-](F)(F)F	582 ± 61
Cc1cccc(C)c1 [1,3-dimethylbenzene] + C[n+]1ccn(CCO)c1.F[B-](F)(F)F	35.5 ± 3.7
Cc1ccccc1 [toluene] + C[n+]1ccn(CCO)c1.F[B-](F)(F)F	17.7 ± 1.9

Results, then the compound that gave them:

activity coefficient	SMILES
14.8 ± 1.6	C=Cc1ccccc1 [styrene] + C[n+]1ccn(CCO)c1.F[B-](F)(F)F
114 ± 12	C1=CCCCC1 [cyclohexene] + C[n+]1ccn(CCO)c1.F[B-](F)(F)F
9.1 ± 0.96	c1ccccc1 [benzene] + C[n+]1ccn(CCO)c1.F[B-](F)(F)F
39 ± 4.1	CCc1ccccc1 [ethylbenzene] + C[n+]1ccn(CCO)c1.F[B-](F)(F)F
488 ± 52	C1CCCCC1 [cyclohexane] + C[n+]1ccn(CCO)c1.F[B-](F)(F)F
1200 ± 130	CCCCCCC [heptane] + C[n+]1ccn(CCO)c1.F[B-](F)(F)F

same assay, conditions: 333.15 K; Liquid; Chromatography; x1 = 0

SMILES	activity coefficient
Cc1ccccc1C [1,2-dimethylbenzene] + C[n+]1ccn(CCO)c1.F[B-](F)(F)F	27 ± 2.8
CCCCCCCC [octane] + C[n+]1ccn(CCO)c1.F[B-](F)(F)F	615 ± 65
Cc1ccc(C)cc1 [1,4-dimethylbenzene] + C[n+]1ccn(CCO)c1.F[B-](F)(F)F	33.2 ± 3.5
CC1CCCCC1 [methylcyclohexane] + C[n+]1ccn(CCO)c1.F[B-](F)(F)F	486 ± 51
CC(C)CC(C)(C)C [2,2,4-trimethylpentane] + C[n+]1ccn(CCO)c1.F[B-](F)(F)F	962 ± 100
CCCCCCCCC [nonane] + C[n+]1ccn(CCO)c1.F[B-](F)(F)F	599 ± 63
Cc1cccc(C)c1 [1,3-dimethylbenzene] + C[n+]1ccn(CCO)c1.F[B-](F)(F)F	34.7 ± 3.7
Cc1ccccc1 [toluene] + C[n+]1ccn(CCO)c1.F[B-](F)(F)F	17.5 ± 1.8

More lines, now with the values ahead:

activity coefficient	SMILES
14.6 ± 1.5	C=Cc1ccccc1 [styrene] + C[n+]1ccn(CCO)c1.F[B-](F)(F)F
110 ± 12	C1=CCCCC1 [cyclohexene] + C[n+]1ccn(CCO)c1.F[B-](F)(F)F
9.08 ± 0.95	c1ccccc1 [benzene] + C[n+]1ccn(CCO)c1.F[B-](F)(F)F
37.9 ± 4	CCc1ccccc1 [ethylbenzene] + C[n+]1ccn(CCO)c1.F[B-](F)(F)F
593 ± 63	C1CCCCC1 [cyclohexane] + C[n+]1ccn(CCO)c1.F[B-](F)(F)F
1610 ± 170	CCCCCCC [heptane] + C[n+]1ccn(CCO)c1.F[B-](F)(F)F

same assay, conditions: 343.15 K; Liquid; Chromatography; x1 = 0

SMILES	activity coefficient
Cc1ccccc1C [1,2-dimethylbenzene] + C[n+]1ccn(CCO)c1.F[B-](F)(F)F	26.5 ± 2.8
CCCCCCCC [octane] + C[n+]1ccn(CCO)c1.F[B-](F)(F)F	659 ± 70
Cc1ccc(C)cc1 [1,4-dimethylbenzene] + C[n+]1ccn(CCO)c1.F[B-](F)(F)F	32.5 ± 3.4
CC1CCCCC1 [methylcyclohexane] + C[n+]1ccn(CCO)c1.F[B-](F)(F)F	546 ± 58
CC(C)CC(C)(C)C [2,2,4-trimethylpentane] + C[n+]1ccn(CCO)c1.F[B-](F)(F)F	1300 ± 140
CCCCCCCCC [nonane] + C[n+]1ccn(CCO)c1.F[B-](F)(F)F	616 ± 65
Cc1cccc(C)c1 [1,3-dimethylbenzene] + C[n+]1ccn(CCO)c1.F[B-](F)(F)F	34 ± 3.6
Cc1ccccc1 [toluene] + C[n+]1ccn(CCO)c1.F[B-](F)(F)F	17.3 ± 1.8

The next lines start with the values.

activity coefficient	SMILES
14.4 ± 1.5	C=Cc1ccccc1 [styrene] + C[n+]1ccn(CCO)c1.F[B-](F)(F)F
106 ± 11	C1=CCCCC1 [cyclohexene] + C[n+]1ccn(CCO)c1.F[B-](F)(F)F
9.06 ± 0.95	c1ccccc1 [benzene] + C[n+]1ccn(CCO)c1.F[B-](F)(F)F
36.7 ± 3.9	CCc1ccccc1 [ethylbenzene] + C[n+]1ccn(CCO)c1.F[B-](F)(F)F
689 ± 73	C1CCCCC1 [cyclohexane] + C[n+]1ccn(CCO)c1.F[B-](F)(F)F
2190 ± 230	CCCCCCC [heptane] + C[n+]1ccn(CCO)c1.F[B-](F)(F)F

same assay, conditions: 353.15 K; Liquid; Chromatography; x1 = 0

SMILES	activity coefficient
Cc1ccccc1C [1,2-dimethylbenzene] + C[n+]1ccn(CCO)c1.F[B-](F)(F)F	25.9 ± 2.7
CCCCCCCC [octane] + C[n+]1ccn(CCO)c1.F[B-](F)(F)F	709 ± 75
Cc1ccc(C)cc1 [1,4-dimethylbenzene] + C[n+]1ccn(CCO)c1.F[B-](F)(F)F	32 ± 3.4
CC1CCCCC1 [methylcyclohexane] + C[n+]1ccn(CCO)c1.F[B-](F)(F)F	611 ± 64
CC(C)CC(C)(C)C [2,2,4-trimethylpentane] + C[n+]1ccn(CCO)c1.F[B-](F)(F)F	1700 ± 180
CCCCCCCCC [nonane] + C[n+]1ccn(CCO)c1.F[B-](F)(F)F	633 ± 67
Cc1cccc(C)c1 [1,3-dimethylbenzene] + C[n+]1ccn(CCO)c1.F[B-](F)(F)F	33.2 ± 3.5
Cc1ccccc1 [toluene] + C[n+]1ccn(CCO)c1.F[B-](F)(F)F	17.2 ± 1.8

Now from value to compound:

activity coefficient	SMILES
14.2 ± 1.5	C=Cc1ccccc1 [styrene] + C[n+]1ccn(CCO)c1.F[B-](F)(F)F
103 ± 11	C1=CCCCC1 [cyclohexene] + C[n+]1ccn(CCO)c1.F[B-](F)(F)F
9.05 ± 0.95	c1ccccc1 [benzene] + C[n+]1ccn(CCO)c1.F[B-](F)(F)F
35.9 ± 3.8	CCc1ccccc1 [ethylbenzene] + C[n+]1ccn(CCO)c1.F[B-](F)(F)F
803 ± 85	C1CCCCC1 [cyclohexane] + C[n+]1ccn(CCO)c1.F[B-](F)(F)F
2980 ± 310	CCCCCCC [heptane] + C[n+]1ccn(CCO)c1.F[B-](F)(F)F

same assay, conditions: 363.15 K; Liquid; Chromatography; x1 = 0

SMILES	activity coefficient
Cc1ccccc1C [1,2-dimethylbenzene] + C[n+]1ccn(CCO)c1.F[B-](F)(F)F	25.4 ± 2.7
CCCCCCCC [octane] + C[n+]1ccn(CCO)c1.F[B-](F)(F)F	760 ± 80
Cc1ccc(C)cc1 [1,4-dimethylbenzene] + C[n+]1ccn(CCO)c1.F[B-](F)(F)F	31.4 ± 3.3
CC1CCCCC1 [methylcyclohexane] + C[n+]1ccn(CCO)c1.F[B-](F)(F)F	677 ± 71
CC(C)CC(C)(C)C [2,2,4-trimethylpentane] + C[n+]1ccn(CCO)c1.F[B-](F)(F)F	2310 ± 240
CCCCCCCCC [nonane] + C[n+]1ccn(CCO)c1.F[B-](F)(F)F	651 ± 69
Cc1cccc(C)c1 [1,3-dimethylbenzene] + C[n+]1ccn(CCO)c1.F[B-](F)(F)F	32.5 ± 3.4
Cc1ccccc1 [toluene] + C[n+]1ccn(CCO)c1.F[B-](F)(F)F	16.9 ± 1.8

The remaining lines, values ahead:

activity coefficient	SMILES
14 ± 1.5	C=Cc1ccccc1 [styrene] + C[n+]1ccn(CCO)c1.F[B-](F)(F)F
100 ± 11	C1=CCCCC1 [cyclohexene] + C[n+]1ccn(CCO)c1.F[B-](F)(F)F
9.04 ± 0.95	c1ccccc1 [benzene] + C[n+]1ccn(CCO)c1.F[B-](F)(F)F
35 ± 3.7	CCc1ccccc1 [ethylbenzene] + C[n+]1ccn(CCO)c1.F[B-](F)(F)F
934 ± 99	C1CCCCC1 [cyclohexane] + C[n+]1ccn(CCO)c1.F[B-](F)(F)F
4220 ± 450	CCCCCCC [heptane] + C[n+]1ccn(CCO)c1.F[B-](F)(F)F
